Measurements taken from patent US12043602B2, “Fendiline derivatives” (The Board of Regents of the University of Texas System, priority 2019, dated 2024).
Values joined by “and” are separate entries in the source; they are usually repeats but may differ in a detail not shown here. Identical values can stand only once. Like-named read-outs stand apart in the source and are kept apart here.

Legend:
mGFP-K-RASG12V = mGFP-K-RASG12V (Homo sapiens (Human), UniProt P01116, G12V); assay: K-Ras mislocalization assay (confocal microscopy, Manders coefficient); type: cell-based; parameters: key to Emax: Manders coefficient: fraction of mCherry-CAAX co-localizing with GFP-K-Ras; conditions: for IC50: 48 h treatment, read-out: IC50 (μM), KRASG12V mislocalization; for Emax: maximal effect, Manders coefficient
Procedure: Madine Darby Canine Kidney epithelial cells (MDCK) stably co-expressing mGFP-tagged full length oncogenic mutant K-Ras (GFP—K-RASG12V) or mGFP-LactC2 (peptide probe for phosphatidylserine) and mCherry-tagged to the amino acids 179-189 of H-RasC181S, C184S (mCherry-CAAX, localizes primarily to endomembranes) were grown in DMEM-high glucose/sodium pyruvate/10% FBS. The medium was supplemented with 1× Penicillin/Streptomycin for fluorescence microscopy assays, to avoid any microbial contamination from the test compounds added. KLE and Hec50 cells were maintained in DMEM-F-12 medium supplemented with 10% FBS. Hec-1A and Hec-1B cells were grown in McCoy's 5a medium supplemented with 10% FBS. ESS-1 cells were grown in RPMI 1640 medium supplemented with 20% FBS. MPanc96 cells were grown in DMEM supplemented with 10% FBS, MiaPaCa-2 cells in DMEM supplemented with 10% FBS and 2.5% horse serum and all other cell lines were grown in RPMI 1640 supplemented with 10% FBS. All cancer cell media were supplemented with ×Penicillin/Streptomycin. All cell lines were grown at 37° C. with 5% CO2.
MDCK co-expressing GFP—K-RASG12V or LactC2 and mCherry-CAAX were grown on coverslips, treated with 0.1% vehicle (DMSO) or various concentrations of drugs for 48 h, and fixed with 4% paraformaldehyde. The coverslips were mounted in mowiol and imaged by confocal microscopy (Nikon A1) using a 60× objective. Using ImageJ software v1.42q, images were converted to 8-bit, and a threshold to a control pixel of each image was set. As a measure of K-Ras/LactC2 mislocalization, the fraction of mCherry-CAAX co-localizing with mGFP-K-RASG12V was calculated using a Manders coefficient plugin downloaded from Wright Cell Image Facility. The fraction of mCherry-CAAX co-localizing with mGFP-RASG12V (Mander's coefficient) is proportional to K-Ras mislocalization.

[1] = test system: MDCK cells co-expressing GFP-K-RASG12V and mCherry-CAAX; assay: Cytotoxicity in mislocalization screen (death of all cells in well); conditions: drug caused death of all cells in well at 30 μM
[2] = batch 4 compounds, MDCK cells, 48 h, title calls it IC50, read-out: EC50

Row | Emax (mGFP-K-RASG12V; MDCK cells, 48 h) | EC50 (mGFP-K-RASG12V; [2]) | Compound | IC50 (mGFP-K-RASG12V; MDCK cells) | Cytotoxic at 30 μM [1] | other results
1 | 0.871 | 1590 nM | COc1ccc([C@@H](C)N(CC=C(c2ccccc2)c2ccccc2)CCCO)cc1 [NY0479, (R)-3-((3,3-diphenylallyl)(1-(4-methoxyphenyl)ethyl)amino)propan-1-ol] |  | No | 
2 | 0.878 | 1780 nM | COc1ccc([C@@H](C)N(CC=C(c2ccccc2)c2ccccc2)CCCN2CCCC2)cc1 [NY0502, (R)-N-(1-(4-methoxyphenyl)ethyl)-3,3-diphenyl-N-(3-(pyrrolidin-1-yl)propyl)prop-2-en-1-amine] |  | Yes | 
3 | 0.845 | 910 nM | CCNC(=O)N(CC=C(c1ccccc1)c1ccccc1)[C@H](C)c1ccc(OC)cc1 [NY0504, (R)-1-(3,3-diphenylallyl)-3-ethyl-1-(1-(4-methoxyphenyl)ethyl)urea] |  | No | 
4 | 0.858 | 1690 nM | CCCCNC(=O)N(CC=C(c1ccccc1)c1ccccc1)[C@H](C)c1ccc(OC)cc1 [NY0507, (R)-3-butyl-1-(3,3-diphenylallyl)-1-(1-(4-methoxyphenyl)ethyl)urea] |  | No | 
5 | 0.553 | 4360 nM | C[C@H](c1ccc(Cl)cc1)N(CC=C(c1ccccc1)c1ccccc1)CCN1CCCC1 [NY0519, (R)-N-(1-(4-chlorophenyl)ethyl)-3,3-diphenyl-N-(2-(pyrrolidin-1-yl)ethyl)prop-2-en-1-amine] |  | Yes | 
6 | 0.816 |  | COc1ccc([C@@H](C)N(CC=C(c2ccccc2)c2ccccc2)C(=O)NC2CCCCC2)cc1 [NY0521, (R)-3-cyclohexyl-1-(3,3-diphenylallyl)-1-(1-(4-methoxyphenyl)ethyl)urea] |  | No | 

More lines, now with the values behind:

Row | Compound | Emax (mGFP-K-RASG12V; MDCK cells, 48 h) | EC50 (mGFP-K-RASG12V; [2]) | IC50 (mGFP-K-RASG12V; MDCK cells) | Cytotoxic at 30 μM [1] | other results
7 | COc1ccc([C@H](C)N(CC=C(c2ccccc2)c2ccccc2)CCN2CCN(C)CC2)cc1 [NY0454, (S)-N-(1-(4-methoxyphenyl)ethyl)-N-(2-(4-methylpiperazin-1-yl)ethyl)-3,3-diphenylprop-2-en-1-amine] | 0.827 |  | 1.24 µM | Yes | IC50 (mGFP-K-RASG12V; MDCK cells, listed as 15a): 1.2 µM; Emax (mGFP-K-RASG12V; MDCK cells, 48 h, listed as 15a): 0.83 and 0.83 ± 0.02; fold potency loss / decreased potency (mGFP-K-RASG12V; versus 12f (NY0244)): 12 fold
8 | C[C@H](c1ccc(F)cc1)N(CC=C(c1ccccc1)c1ccccc1)CCN1CCN(C)CC1 [NY0505, (R)-N-(1-(4-fluorophenyl)ethyl)-N-(2-(4-methylpiperazin-1-yl)ethyl)-3,3-diphenylprop-2-en-1-amine] | 0.832 | 1510 nM | 1.5 µM | Yes | Emax (mGFP-K-RASG12V; MDCK cells, 48 h, listed as 15e): 0.83 ± 0.02
9 | C(CNC1(c2ccccc2)CCCCC1)=C(c1ccccc1)c1ccccc1 [NY0514, N-(3,3-diphenylallyl)-1-phenylcyclohexan-1-amine] | 0.802 |  |  | No | EC50 (mGFP-K-RASG12V): 1340 nM
10 | C[C@H](c1ccc(Cl)cc1)N(CC=C(c1ccccc1)c1ccccc1)CCN1CCN(C)CC1 [NY0518, (R)-N-(1-(4-chlorophenyl)ethyl)-N-(2-(4-methylpiperazin-1-yl)ethyl)-3,3-diphenylprop-2-en-1-amine] | 0.695 | 3840 nM | 3.8 µM | Yes | Emax (mGFP-K-RASG12V; MDCK cells, 48 h, listed as 15f): 0.70 ± 0.02
11 | C[C@H](c1ccc([N+](=O)[O-])cc1)N(CC=C(c1ccccc1)c1ccccc1)CCN1CCN(C)CC1 [NY0522, (R)-N-(2-(4-methylpiperazin-1-yl)ethyl)-N-(1-(4-nitrophenyl)ethyl)-3,3-diphenylprop-2-en-1-amine] | 0.621 | 5170 nM | 5.2 µM | Yes | Emax (mGFP-K-RASG12V; MDCK cells, 48 h, listed as 15h): 0.62 ± 0.02
12 | C[C@@H](NCCN1c2ccccc2CCc2ccccc21)c1ccc(F)cc1 [NY0552, (R)-2-(10,11-dihydro-5H-dibenzo[b,f]azepin-5-yl)-N-(1-(4-fluorophenyl)ethyl)ethan-1-amine] | 0.426 | 4050 nM |  | No | 
